SMILES strings stand for the structures. Where only a bound is given, the exact number is not on record here.

In one experiment the target is TYK2 (Homo sapiens (Human), UniProt P29597). The experiment can be described thus: Biochemical potency on Tyk2, TR-FRET LANCE Ultra kinase assay (compounds 1-92). The following applies: ATP at Km, read-out: Tyk2 inhibitory activity (pIC50 class) (converted). As to the method: (§1) Biochemical Potency on JAK1, JAK2, JAK3 and Tyk2 Assay Principle The objective of this study was to assess the capability of compounds to inhibit all 4 JAK isoforms activity in a cell-free environment. Assay for JAK 1, JAK 2, JAK 3 and TYK2 were performed by Time-resolved fluorescence resonance energy transfer (TR-FRET) technology. It consists in the interaction of two labelled binding partners detected by the energy transfer from an excited donor to an acceptor dye and measurement of light emission by the acceptor dye. LANCE Ultra kinase assay was used. In presence of JAK 1, JAK 2, JAK 3 and TYK2 kinases and ATP (corresponding to Km), the ULight peptide substrate (LANCE Ulight-JAK-1 ([…]) Peptide, Perkin Elmer, TRF0121) is phosphorylated. It is then captured by Eu-anti-phospho-substrate antibody (LANCE Eu-W1024 Anti-phosphotyrosine (PT66), Perkin Elmer, AD0069), which bring the Eu-chelate donor and ULight acceptor dyes into close proximity. Upon excitation at 320 nm, the Eu-chelate transfers its energy to the ULight dye, resulting in a fluorescent light emission at 665 nm. Compound Testing Serial dilutions of compounds in pure DMSO are prepared from 10 mM DMSO stock solutions. Compounds were tested in 384-well plate for 11 consecutive 5-fold dilutions starting from 20 μM highest concentration (20 μM-[…]). 200 nL of compound were transferred from mother plate to test plate by using Mosquito (TTP labtech). Assay was performed in 384-well Perkin Elmer test plate in 20 μL assay volume (kinase reaction) and 40 μL total volume (stopping reagent and antibody detection reagents). In 10 μL of substrate solution (peptide+ATP) 30/50/20/10 nM of peptide and 20/0.7/0.2/12 μM of ATP were added for JAK 1, JAK 2, JAK 3 and TYK2 respectively. 10 μL of enzyme solution was added to kinase reaction at these concentrations: 0.15/0.083/0.025/0.144 ng/μL of JAK 1, JAK 2, JAK 3 and TYK2 respectively. After shaking and 1.5 h of incubation at r.t., 20 μL of Stop (10 μL EDTA) and Detection mixture (10 μL Europium-anti-phospho antibody, final: 0.5 nM) were added. Reading was performed after 1 h of incubation on a EnVision 2104 reader (Perkin Elmer). Calculation of IC50 data, curves and QC analysis was performed by using Excel tool and GraphPadPrism software, v9. Briefly, individual concentration-effect curves are generated by plotting the logarithm of the tested concentration of tested compounds (X) vs. corresponding percent inhibition values (Y) using least squares (ordinary) fit. Best fit IC50 values are calculated using Log(inhibitor) vs. normalized response-Variable slope equation, where Y=100/(1+10^((Log IC50-X)*HillSlope)). QC criteria parameters (Z', S:B, R2, HillSlope) were checked for every IC50 curve. Calculation of IC50 data, curves and QC analysis were made using Excel tools and GraphPadPrism software. QC criteria parameters: Z'≥0.5, Hill Slope range 0.5 to 5, S:B>2.
Sequence of TYK2 (P29597 whole entry, canonical isoform): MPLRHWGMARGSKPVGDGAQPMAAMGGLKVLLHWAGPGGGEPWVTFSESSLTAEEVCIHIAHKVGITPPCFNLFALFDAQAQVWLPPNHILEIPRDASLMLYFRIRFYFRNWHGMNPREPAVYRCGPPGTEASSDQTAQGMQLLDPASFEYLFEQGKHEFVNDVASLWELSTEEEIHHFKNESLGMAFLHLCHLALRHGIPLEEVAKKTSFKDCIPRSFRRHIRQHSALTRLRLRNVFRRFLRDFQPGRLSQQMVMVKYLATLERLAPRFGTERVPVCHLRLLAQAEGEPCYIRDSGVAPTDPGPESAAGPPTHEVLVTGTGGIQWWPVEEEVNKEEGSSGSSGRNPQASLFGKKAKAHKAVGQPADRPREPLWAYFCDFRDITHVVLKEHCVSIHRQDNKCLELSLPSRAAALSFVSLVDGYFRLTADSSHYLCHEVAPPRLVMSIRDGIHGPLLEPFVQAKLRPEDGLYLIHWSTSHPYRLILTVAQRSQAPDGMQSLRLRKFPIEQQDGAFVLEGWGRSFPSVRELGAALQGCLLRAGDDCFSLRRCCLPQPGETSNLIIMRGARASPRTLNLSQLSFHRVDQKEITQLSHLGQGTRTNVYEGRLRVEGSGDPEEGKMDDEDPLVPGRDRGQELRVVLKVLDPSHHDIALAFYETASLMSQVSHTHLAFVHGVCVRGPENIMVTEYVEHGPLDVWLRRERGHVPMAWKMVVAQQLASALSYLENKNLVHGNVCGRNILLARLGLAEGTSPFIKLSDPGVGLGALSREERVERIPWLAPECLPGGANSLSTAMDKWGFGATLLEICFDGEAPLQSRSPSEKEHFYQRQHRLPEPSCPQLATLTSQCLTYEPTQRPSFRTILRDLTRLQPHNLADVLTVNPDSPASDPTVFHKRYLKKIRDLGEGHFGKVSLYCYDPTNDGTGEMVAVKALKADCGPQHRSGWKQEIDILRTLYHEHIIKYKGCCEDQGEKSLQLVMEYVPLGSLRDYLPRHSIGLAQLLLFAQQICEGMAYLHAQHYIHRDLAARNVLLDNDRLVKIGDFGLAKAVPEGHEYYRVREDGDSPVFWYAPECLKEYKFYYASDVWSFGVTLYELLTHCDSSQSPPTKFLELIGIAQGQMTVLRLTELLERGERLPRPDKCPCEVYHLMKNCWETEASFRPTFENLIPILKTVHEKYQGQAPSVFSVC

The next experiment deals with JAK 1 (Homo sapiens (Human), UniProt P23458). The experiment can be described thus: Biochemical potency on JAK1, TR-FRET LANCE Ultra kinase assay (compounds 1-92). The following applies: ATP at Km, read-out: JAK1 inhibitory activity (pIC50 class) (converted). The protocol: as §1
Sequence of JAK 1 (P23458 whole entry): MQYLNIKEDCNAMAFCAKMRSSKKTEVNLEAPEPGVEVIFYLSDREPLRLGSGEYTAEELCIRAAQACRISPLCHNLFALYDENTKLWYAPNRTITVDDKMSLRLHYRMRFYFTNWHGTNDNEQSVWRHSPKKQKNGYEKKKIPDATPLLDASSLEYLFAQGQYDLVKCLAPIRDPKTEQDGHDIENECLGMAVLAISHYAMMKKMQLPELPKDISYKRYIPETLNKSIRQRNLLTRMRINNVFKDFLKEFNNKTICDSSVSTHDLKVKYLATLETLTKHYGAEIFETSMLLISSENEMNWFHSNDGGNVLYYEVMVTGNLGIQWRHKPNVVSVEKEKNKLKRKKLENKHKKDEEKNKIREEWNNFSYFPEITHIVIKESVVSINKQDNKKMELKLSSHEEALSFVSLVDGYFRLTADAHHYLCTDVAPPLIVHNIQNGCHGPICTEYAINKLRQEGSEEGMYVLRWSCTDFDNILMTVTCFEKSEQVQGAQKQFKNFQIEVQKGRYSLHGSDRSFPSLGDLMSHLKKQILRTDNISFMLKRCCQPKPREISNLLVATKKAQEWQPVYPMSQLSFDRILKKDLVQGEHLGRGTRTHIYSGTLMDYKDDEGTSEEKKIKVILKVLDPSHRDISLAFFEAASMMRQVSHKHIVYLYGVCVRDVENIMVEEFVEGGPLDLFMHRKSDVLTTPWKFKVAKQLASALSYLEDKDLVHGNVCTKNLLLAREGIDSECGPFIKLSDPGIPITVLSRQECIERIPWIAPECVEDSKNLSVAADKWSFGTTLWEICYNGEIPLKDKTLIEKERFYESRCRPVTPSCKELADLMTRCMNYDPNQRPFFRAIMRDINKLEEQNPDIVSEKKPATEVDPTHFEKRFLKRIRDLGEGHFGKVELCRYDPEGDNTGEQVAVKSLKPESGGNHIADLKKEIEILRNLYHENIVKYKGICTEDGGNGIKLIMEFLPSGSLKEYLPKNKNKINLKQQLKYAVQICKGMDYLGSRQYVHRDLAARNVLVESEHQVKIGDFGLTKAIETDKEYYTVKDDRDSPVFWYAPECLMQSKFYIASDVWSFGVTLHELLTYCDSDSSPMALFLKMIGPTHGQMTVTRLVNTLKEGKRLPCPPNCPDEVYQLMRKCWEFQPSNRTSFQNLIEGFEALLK
Another experiment has as its target JAK 2 (Homo sapiens (Human), UniProt O60674). The experiment can be described thus: Biochemical potency on JAK2, TR-FRET LANCE Ultra kinase assay (compounds 1-92). To be noted: ATP at Km, read-out: JAK2 inhibitory activity (pIC50 class) (converted). As to the method:
as §1
On the technique in general: TR-FRET usually uses a lanthanide donor and a delayed reading to cut background.

A further experiment concerns the target JAK 3 (Homo sapiens (Human), UniProt P52333). The experiment can be described thus: Biochemical potency on JAK3, TR-FRET LANCE Ultra kinase assay (compounds 1-92). To be noted: ATP at Km, read-out: JAK3 inhibitory activity (pIC50 class) (converted). As to the method: as §1

Sequence of JAK 3 (P52333 whole entry): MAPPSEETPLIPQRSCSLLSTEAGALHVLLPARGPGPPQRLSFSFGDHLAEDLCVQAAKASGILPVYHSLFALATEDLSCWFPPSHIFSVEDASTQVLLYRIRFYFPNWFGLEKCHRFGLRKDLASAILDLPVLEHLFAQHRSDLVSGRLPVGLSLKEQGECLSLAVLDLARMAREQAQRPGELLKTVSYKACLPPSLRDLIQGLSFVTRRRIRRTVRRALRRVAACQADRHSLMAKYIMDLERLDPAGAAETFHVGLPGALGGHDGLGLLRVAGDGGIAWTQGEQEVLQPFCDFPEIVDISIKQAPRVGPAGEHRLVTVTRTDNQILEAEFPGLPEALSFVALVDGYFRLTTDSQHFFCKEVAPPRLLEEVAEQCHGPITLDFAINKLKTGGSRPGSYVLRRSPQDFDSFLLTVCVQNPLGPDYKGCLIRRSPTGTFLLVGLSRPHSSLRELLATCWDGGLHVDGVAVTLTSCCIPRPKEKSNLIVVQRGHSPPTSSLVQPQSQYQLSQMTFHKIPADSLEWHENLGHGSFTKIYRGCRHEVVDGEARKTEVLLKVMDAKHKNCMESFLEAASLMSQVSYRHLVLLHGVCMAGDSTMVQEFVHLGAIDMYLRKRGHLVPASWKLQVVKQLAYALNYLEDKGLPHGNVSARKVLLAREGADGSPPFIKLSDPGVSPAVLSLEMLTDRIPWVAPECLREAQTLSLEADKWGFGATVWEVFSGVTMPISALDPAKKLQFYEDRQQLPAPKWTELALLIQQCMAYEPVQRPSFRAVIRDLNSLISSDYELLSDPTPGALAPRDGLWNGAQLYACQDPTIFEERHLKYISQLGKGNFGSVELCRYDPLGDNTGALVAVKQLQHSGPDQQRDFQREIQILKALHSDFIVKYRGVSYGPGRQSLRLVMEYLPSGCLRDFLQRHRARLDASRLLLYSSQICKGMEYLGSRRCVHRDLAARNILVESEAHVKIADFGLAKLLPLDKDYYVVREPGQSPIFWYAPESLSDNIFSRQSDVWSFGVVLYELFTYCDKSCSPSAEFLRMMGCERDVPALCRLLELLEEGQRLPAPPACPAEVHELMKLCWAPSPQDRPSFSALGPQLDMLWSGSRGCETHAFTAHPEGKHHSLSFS
Sequence of JAK 2 (O60674 whole entry): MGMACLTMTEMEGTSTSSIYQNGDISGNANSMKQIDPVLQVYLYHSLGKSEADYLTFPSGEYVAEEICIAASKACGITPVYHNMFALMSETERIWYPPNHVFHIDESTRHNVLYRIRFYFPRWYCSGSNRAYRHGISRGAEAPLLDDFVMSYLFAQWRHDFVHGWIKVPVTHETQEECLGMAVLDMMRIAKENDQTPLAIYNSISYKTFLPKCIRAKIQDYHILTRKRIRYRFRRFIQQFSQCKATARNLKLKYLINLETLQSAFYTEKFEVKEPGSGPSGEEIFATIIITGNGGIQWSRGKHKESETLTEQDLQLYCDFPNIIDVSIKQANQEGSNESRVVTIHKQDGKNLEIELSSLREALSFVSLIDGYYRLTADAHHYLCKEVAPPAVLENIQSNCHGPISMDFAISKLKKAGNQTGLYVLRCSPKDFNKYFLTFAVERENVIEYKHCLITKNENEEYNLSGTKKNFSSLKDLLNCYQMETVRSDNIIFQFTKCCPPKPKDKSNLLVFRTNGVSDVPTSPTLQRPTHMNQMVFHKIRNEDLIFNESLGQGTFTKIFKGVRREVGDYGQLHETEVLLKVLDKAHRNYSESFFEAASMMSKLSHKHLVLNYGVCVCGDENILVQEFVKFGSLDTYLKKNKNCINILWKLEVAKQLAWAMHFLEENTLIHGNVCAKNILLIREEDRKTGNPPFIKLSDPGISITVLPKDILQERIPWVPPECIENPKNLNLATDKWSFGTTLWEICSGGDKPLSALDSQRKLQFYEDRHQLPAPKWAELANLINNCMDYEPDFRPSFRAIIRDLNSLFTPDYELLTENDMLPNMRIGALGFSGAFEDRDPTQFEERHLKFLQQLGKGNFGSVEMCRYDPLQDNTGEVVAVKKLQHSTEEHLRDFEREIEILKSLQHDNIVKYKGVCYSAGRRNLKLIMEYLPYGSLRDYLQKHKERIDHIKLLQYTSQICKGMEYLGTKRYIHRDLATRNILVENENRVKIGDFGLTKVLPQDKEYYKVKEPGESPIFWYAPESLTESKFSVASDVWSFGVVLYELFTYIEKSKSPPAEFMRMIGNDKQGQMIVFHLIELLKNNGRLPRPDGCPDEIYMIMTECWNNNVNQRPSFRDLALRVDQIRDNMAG

In the case of `COc1cc(N)ccc1-n1nc(C)c2cnc(-c3cnn4cccnc34)cc21` [Example 17, 3-methoxy-4-(3-methyl-6-(pyrazolo[1,5-a]pyrimidin-3-yl)-1H-pyrazolo[4,3-c]pyridin-1-yl)aniline], the IC50 at TYK2 is more than 50.1 nM; on JAK 1, 5.01 to 50.1 nM; on JAK 2 it was 5.01 to 50.1 nM; on JAK 3, 5.01 to 50.1 nM.

For the compound `COc1cc(NS(C)(=O)=O)ccc1-n1nc(C(=O)NCCN(C)C)c2cnc(-c3cnn4cccnc34)cc21` [Example 44, N-(2-(dimethylamino)ethyl)-1-(2-methoxy-4-(methylsulfonamido)phenyl)-6-(pyrazolo[1,5-a]pyrimidin-3-yl)-1H-pyrazolo[4,3-c]pyridine-3-carboxamide], the IC50 at TYK2 was 5.01 to 50.1 nM; on JAK 1, not above 5.01 nM; on JAK 2 it was not above 5.01 nM; at JAK 3, not above 5.01 nM.

Regarding `COc1cc(NS(C)(=O)=O)ccc1-n1nc(NC(=O)CN2CCN(C)CC2)c2cnc(-c3cnn4cccnc34)cc21` [Example 81, N-(1-(2-methoxy-4-(methylsulfonamido)phenyl)-6-(pyrazolo[1,5-a]pyrimidin-3-yl)-1H-pyrazolo[4,3-c]pyridin-3-yl)-2-(4-methylpiperazin-1-yl)acetamide], the IC50 was 5.01 to 50.1 nM at TYK2, not above 5.01 nM at JAK 1, not above 5.01 nM at JAK 2 and not above 5.01 nM on JAK 3.

Take `COc1cc(NS(=O)(=O)CC2CCCO2)ccc1-n1nc(C)c2cnc(-c3cnn4cccnc34)cc21` (stereo not shown) [Example 2, N-(3-methoxy-4-(3-methyl-6-(pyrazolo[1,5-a]pyrimidin-3-yl)-1H-pyrazolo[4,3-c]pyridin-1-yl)phenyl)-1-(tetrahydrofuran-2-yl)methanesulfonamide]: the IC50 on TYK2 was 5.01 to 50.1 nM; at JAK 1, 5.01 to 50.1 nM; on JAK 2 it was not above 5.01 nM; at JAK 3, 5.01 to 50.1 nM.

Turning to `COc1cc(NS(=O)(=O)C2CC2)ccc1-n1nc(NCCN2CCCCC2)c2cnc(-c3cnn4cccnc34)cc21` [Example 36, N-(3-methoxy-4-(3-((2-(piperidin-1-yl)ethyl)amino)-6-(pyrazolo[1,5-a]pyrimidin-3-yl)-1H-pyrazolo[4,3-c]pyridin-1-yl)phenyl)cyclopropanesulfonamide], the IC50 on TYK2, at JAK 1, at JAK 2 and at JAK 3 was 5.01 to 50.1 nM throughout.

`COc1cc(CNS(C)(=O)=O)ccc1-n1nc(C)c2cnc(-c3cnn4cccnc34)cc21` [Example 63, N-(3-methoxy-4-(3-methyl-6-(pyrazolo[1,5-a]pyrimidin-3-yl)-1H-pyrazolo[4,3-c]pyridin-1-yl)benzyl)methanesulfonamide]: the IC50 at TYK2 is 5.01 to 50.1 nM; at JAK 1 it was not above 5.01 nM; on JAK 2, not above 5.01 nM; at JAK 3 it was not above 5.01 nM.

Regarding `COc1cc(CN(C)S(C)(=O)=O)ccc1-n1nc(C)c2cnc(-c3cnn4cccnc34)cc21` [Example 65, N-(3-methoxy-4-(3-methyl-6-(pyrazolo[1,5-a]pyrimidin-3-yl)-1H-pyrazolo[4,3-c]pyridin-1-yl)benzyl)-N-methylmethanesulfonamide], the IC50 is 5.01 to 50.1 nM on TYK2, not above 5.01 nM on JAK 1, not above 5.01 nM at JAK 2 and not above 5.01 nM at JAK 3.

On to `COc1cc(CO)ccc1-n1nc(C)c2cnc(-c3cnn4cccnc34)cc21` [Example 66, (3-methoxy-4-(3-methyl-6-(pyrazolo[1,5-a]pyrimidin-3-yl)-1H-pyrazolo[4,3-c]pyridin-1-yl)phenyl)methanol], for which the IC50 is more than 50.1 nM on TYK2, 5.01 to 50.1 nM on JAK 1, 5.01 to 50.1 nM on JAK 2 and 5.01 to 50.1 nM on JAK 3.

`COc1cc(NS(C)(=O)=O)ccc1-n1nc(C(=O)NCCN2CCOCC2)c2cnc(-c3cnn4cccnc34)cc21` [Example 45, 1-(2-methoxy-4-(methylsulfonamido)phenyl)-N-(2-morpholinoethyl)-6-(pyrazolo[1,5-a]pyrimidin-3-yl)-1H-pyrazolo[4,3-c]pyridine-3-carboxamide]: the IC50 was 5.01 to 50.1 nM at TYK2, not above 5.01 nM on JAK 1, not above 5.01 nM on JAK 2 and not above 5.01 nM on JAK 3.

As for `COc1cc(C#N)ccc1-n1nc(C)c2cnc(-c3cnn4cccnc34)cc21` [Example 15, 3-methoxy-4-(3-methyl-6-(pyrazolo[1,5-a]pyrimidin-3-yl)-1H-pyrazolo[4,3-c]pyridin-1-yl)benzonitrile], the IC50 at TYK2 was more than 50.1 nM; at JAK 1, 5.01 to 50.1 nM; on JAK 2, 5.01 to 50.1 nM; at JAK 3, 5.01 to 50.1 nM.

Consider `COc1cc(CNS(C)(=O)=O)ccc1-n1nc(NCCN2CCOCC2)c2cnc(Nc3ncc[nH]c3=O)cc21` [Example 92, N-(3-methoxy-4-(3-((2-morpholinoethyl)amino)-6-((3-oxo-3,4-dihydropyrazin-2-yl)amino)-1H-pyrazolo[4,3-c]pyridin-1-yl)benzyl)methanesulfonamide], for which the IC50 on TYK2, on JAK 1, on JAK 2 and at JAK 3 was not above 5.01 nM in each case.

`Cc1nn(-c2ccc(CNS(C)(=O)=O)cc2OC(F)F)c2cc(-c3cnn4cccnc34)ncc12` [Example 61, N-(3-(difluoromethoxy)-4-(3-methyl-6-(pyrazolo[1,5-a]pyrimidin-3-yl)-1H-pyrazolo[4,3-c]pyridin-1-yl)benzyl)methanesulfonamide]: the IC50 on TYK2 was 5.01 to 50.1 nM; on JAK 1 it was not above 5.01 nM; on JAK 2, not above 5.01 nM; on JAK 3, not above 5.01 nM.

Turning to `COc1cc(NS(C)(=O)=O)ccc1-n1nc(NCCN2C3CCC2COC3)c2cnc(Nc3ncc[nH]c3=O)cc21` [Example 90, N-(4-(3-((2-(3-oxa-8-azabicyclo[3.2.1]octan-8-yl)ethyl)amino)-6-((3-oxo-3,4-dihydropyrazin-2-yl)amino)-1H-pyrazolo[4,3-c]pyridin-1-yl)-3-methoxyphenyl)methanesulfonamide], the IC50 on TYK2, on JAK 1, at JAK 2 and at JAK 3 was not above 5.01 nM each time.

For `COc1cc(NS(C)(=O)=O)ccc1-n1nc(NCCCNC(=O)OC(C)(C)C)c2cnc(-c3cnn4cccnc34)cc21` [Example 21, tert-butyl (3-((1-(2-methoxy-4-(methylsulfonamido)phenyl)-6-(pyrazolo[1,5-a]pyrimidin-3-yl)-1H-pyrazolo[4,3-c]pyridin-3-yl)amino)propyl)carbamate], the IC50 was 5.01 to 50.1 nM at TYK2, not above 5.01 nM on JAK 1, not above 5.01 nM on JAK 2 and not above 5.01 nM at JAK 3.

In the case of `COCCN1CCC(CNc2nn(-c3ccc(NS(C)(=O)=O)cc3OC)c3cc(-c4cnn5cccnc45)ncc23)CC1` [Example 27, N-(3-methoxy-4-(3-(((1-(2-methoxyethyl)piperidin-4-yl)methyl)amino)-6-(pyrazolo[1,5-a]pyrimidin-3-yl)-1H-pyrazolo[4,3-c]pyridin-1-yl)phenyl)methanesulfonamide], the IC50 on TYK2 was 5.01 to 50.1 nM; at JAK 1 it was not above 5.01 nM; at JAK 2, not above 5.01 nM; on JAK 3 it was not above 5.01 nM.

Turning to `COc1cc(NS(C)(=O)=O)ccc1-n1nc(NCCN2C3CCC2COC3)c2cnc(-c3cnn4cccnc34)cc21` [Example 30, N-(4-(3-((2-(3-oxa-8-azabicyclo[3.2.1]octan-8-yl)ethyl)amino)-6-(pyrazolo[1,5-a]pyrimidin-3-yl)-1H-pyrazolo[4,3-c]pyridin-1-yl)-3-methoxyphenyl)methanesulfonamide], the IC50 on TYK2 is 5.01 to 50.1 nM; on JAK 1, not above 5.01 nM; on JAK 2, not above 5.01 nM; at JAK 3 it was not above 5.01 nM.

The record behind these values is US20240209001A1, “HETEROCYCLIC DERIVATIVES AS JANUS KINASE INHIBITORS” (CHIESI FARMACEUTICI S.P. A., priority 2021, published 2024).
